Measurements: US10912840B2, “Conjugates for treating diseases caused by PSMA expressing cells” (priority 2012, dated 2021)
Entries after “also recorded” stand apart in the source; their conditions may differ. Read-outs that look alike come from different tables or passages of the source.

Key:
[1] = tested on: PSMA-positive LNCaP human xenografts; test: Activity in vivo against PSMA+ tumor implanted in mice; conditions: for tumor growth in vivo compared to untreated animals / cures (cured/tested animals; no tumor growth during entire observation period): 2 μmol/kg, LNCaP xenografts; for tumor growth in vivo compared to untreated animals: TIW for 2 weeks, beginning on day 21 post tumor implant; for cures (cured/tested animals; no tumor growth during entire observation period): TIW
Source text: Survival of animals is monitored daily.

[2] = Gross toxicity (body weight change) in LNCaP tumor-bearing mice
Method: Four to seven week-old male nu/nu mice (Harlan Sprague Dawley. Inc., Indianapolis, Ind.) are maintained on a standard 12 h light-dark cycle and fed ad libitum with rodent diet #2918 (Harlan Teklad, Madison, Wis.) for the duration of the experiment. LNCaP cells are grown in RPMI in 10% HIFCS at 37° C. in a 5% CO2/95% air-humidified atmosphere, harvested and resuspended on ice in matrigel solution (50% RPMI+50% matrigel high concentration. BD#354248) to a final concentration of 1×10^6 cells/50 μL. Cell solution and injection needles (28 gauge) are kept on ice prior to injection and 50 μL of the cell solution injected in the subcutis of the dorsal medial area. Mice are divided into groups of five, seven, or nine, and freshly prepared test compound solutions are injected through the lateral tail vein under sterile conditions in a volume of 200 μL of phosphate-buffered saline (PBS). […] Growth of each s.c. tumor is followed by measuring the tumor three times per week during treatment and twice per week thereafter, until a volume of 1500 mm^3 is reached. Tumors are measured in two perpendicular directions using Vernier calipers, and their volumes are calculated as 0.5×L×W^2, where L=measurement of longest axis in mm and W=measurement of axis perpendicular to L in mm. As a general measure of gross toxicity, changes in body weights are determined on the same schedule as tumor volume measurements. Maximum % weight loss on any given day due to treatment is determined for each mouse. Survival of animals is monitored daily. Animals that are moribund (or unable to reach food or water) are euthanized by CO2 asphyxiation.

PSMA = target: T1, PSMA (Homo sapiens, UniProt Q04609); assay type: binding
T1 construct: endogenous in cells; host or cells: LNCaP cells
Method: PSMA relative affinity assay. LNCaP cells are seeded in 12-well Corning Cell-BIND plates and allowed to form adherent monolayers overnight in RPMI/HIFCS. Spent incubation media is replaced with RPMI supplemented with 10% HIFCS and containing a standard PSMA binding ligand, such as 100 nM of 3H-PMPA or a competing compound, such as EC0652, Re-EC652, or ^99mTc-EC0652, in the absence and presence of increasing concentrations of test compound, such as unlabeled PMPA, or a compound described herein, such as EC1169 or EC1568, a negative control intermediate lacking a PSMA binding ligand which is used as a negative control. Cells are incubated for 1 h at 37° C. and then rinsed three times with 0.5 mL of PBS. Five hundred microliters of 1% sodium dodecylsulfate in PBS are added to each well; after 5 min, cell lysates are collected, transferred to individual tubes or to vials containing 5 mL of scintillation cocktail, and then counted for radioactivity. Cells exposed to only the standard PSMA binding ligand, such as 3H-PMPA, or competing compound, such as ^99mTc-EC0652, in FFRPMI (no competitor) are designated as negative controls, whereas cells exposed to the standard PSMA binding ligand, such as 3H-PMPA, plus 1 mM unlabeled PMPA or competing compound, such as ^99mTc-EC0652 plus Re-EC0652, serve as positive controls. Disintegrations per minute (DPMs) measured in the latter samples (representing nonspecific binding of label) are subtracted from the DPM values from all samples. Relative affinities are defined as the inverse molar ratio of compound required to displace 50% of the standard PSMA binding ligand, such as ^3H-PMPA, or the competing compound, such as ^99mTc-EC0652, bound to PSMA on LNCaP cells, and the relative affinity of the standard PSMA binding ligand, such as PMPA, or the competing compound, such as Re-EC0652, for PSMA is set to 1.

LNCaP cells = conditions: human
Method: LNCaP cells are seeded in 24-well Corning Cell-BIND plates and allowed to form nearly confluent monolayers overnight in RPMI/HIFCS. Thirty minutes prior to the addition of test compound, such as a compound described herein, spent medium is aspirated from all wells and replaced with fresh RPMI. Following one rinse with 1 mL of fresh RPMI/HIFCS, each well receives 1 mL of media containing increasing concentrations of test compound (four wells per sample). Test compound treated cells are pulsed for 2 h at 37° C., rinsed four times with 0.5 mL of media, and then chased in 1 mL of fresh media up to 70 h. Spent media is aspirated from all wells and replaced with fresh media containing 5 μCi/mL ^3H-thymidine. Following a further 4 h 37° C. incubation, cells are washed three times with 0.5 mL of PBS and then treated with 0.5 mL of ice-cold 5% trichloroacetic acid per well. After 15 min, the trichloroacetic acid is aspirated and the cells are solubilized by the addition of 0.5 mL of 0.25 N sodium hydroxide for 15 min. Four hundred and fifty microliters of each solubilized sample is transferred to scintillation vials containing 3 mL of Ecolume scintillation cocktail and then counted in a liquid scintillation counter. Final tabulated results are expressed as the percentage of ^3H-thymidine incorporation relative to untreated controls.

[3] = assay type: in vivo; conditions: rats, i.v., 0.33 and 0.51 μmol/kg, BIW, 2 weeks
[4] = PMPA = 1.0 (normalized), in 10% serum/FDRPMI
[5] = 10 mg/kg, BIW, 2 weeks, MTD, LNCaP-tumor bearing mice

T1 sequence (Q04609 whole entry): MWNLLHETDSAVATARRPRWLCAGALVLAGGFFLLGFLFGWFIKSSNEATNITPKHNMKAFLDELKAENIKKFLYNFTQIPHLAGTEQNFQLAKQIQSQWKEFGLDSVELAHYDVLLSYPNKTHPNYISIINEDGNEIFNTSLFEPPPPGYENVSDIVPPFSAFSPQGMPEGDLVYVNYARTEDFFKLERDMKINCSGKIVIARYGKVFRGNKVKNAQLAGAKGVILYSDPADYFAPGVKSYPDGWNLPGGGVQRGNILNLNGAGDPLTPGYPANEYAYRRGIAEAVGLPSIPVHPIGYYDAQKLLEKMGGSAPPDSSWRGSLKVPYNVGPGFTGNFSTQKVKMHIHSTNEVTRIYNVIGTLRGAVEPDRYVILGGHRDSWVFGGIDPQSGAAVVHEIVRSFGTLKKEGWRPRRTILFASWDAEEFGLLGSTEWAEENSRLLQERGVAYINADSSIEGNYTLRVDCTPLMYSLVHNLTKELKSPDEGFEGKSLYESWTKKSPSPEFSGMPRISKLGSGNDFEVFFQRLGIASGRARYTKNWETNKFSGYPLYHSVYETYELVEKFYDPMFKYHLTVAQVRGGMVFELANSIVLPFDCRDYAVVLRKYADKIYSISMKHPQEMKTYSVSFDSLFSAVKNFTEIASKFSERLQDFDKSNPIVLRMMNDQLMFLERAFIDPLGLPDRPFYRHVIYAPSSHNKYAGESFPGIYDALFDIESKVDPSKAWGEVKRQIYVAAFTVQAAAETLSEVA

## CCCCCOCN(C(=O)[C@@H](NC(=O)[C@H]1CCCCN1C)[C@@H](C)CC)[C@H](C[C@@H](OC(C)=O)c1nc(C(=O)N[C@@H](Cc2ccc(O)cc2)C[C@H](C)C(=O)NNC(=O)OCCSSC[C@H](NC(=O)[C@H](CC(=O)O)NC(=O)[C@H](CC(=O)O)NC(=O)Cc2ccc(CNC(=O)NCCCC[C@H](NC(=O)N[C@@H](CCC(=O)O)C(=O)O)C(=O)O)cc2)C(=O)O)cs1)C(C)C [EC1719]
[1]
  tumor growth in vivo compared to untreated animals: efficacious in decreasing tumor growth
[1]; 2 weeks
  cures (cured/tested animals; no tumor growth during entire observation period): 2/7
other
  IC50: 37.5 nM
[2]; 2 μmol/kg, TIW, 2 weeks
  gross animal toxicity (weight loss, major organ tissue degeneration): do not exhibit gross animal toxicity

## O=C(O)CC[C@H](NC(=O)N[C@@H](CCCCNC(=O)Nc1ccc(CC(=O)N[C@@H](CC(=O)O)C(=O)N[C@@H](CC(=O)O)C(=O)N[C@@H](CS)C(=O)O)cc1)C(=O)O)C(=O)O [EC1067]
PSMA
  Relative PSMA Binding Affinity (fold over PMPA = 1.0): 30 fold
PSMA; [4]
  relative affinity for PSMA: 30 ×

## O=C(O)CC[C@H](NC(=O)N[C@@H](CCCCNC(=O)Nc1ccc(CC(=O)O)cc1)C(=O)O)C(=O)O [EC1080]
PSMA
  Relative PSMA Binding Affinity (fold over PMPA = 1.0): 6 fold
PSMA; [4]
  relative affinity for PSMA: 6 ×

## CCCCOCN(C(=O)[C@@H](NC(=O)[C@H]1CCCCN1C)[C@@H](C)CC)[C@H](C[C@@H](OC(C)=O)c1nc(C(=O)N[C@@H](Cc2ccc(O)cc2)C[C@H](C)C(=O)NNC(=O)OCCSSC[C@H](NC(=O)[C@H](CC(=O)O)NC(=O)[C@H](CC(=O)O)NC(=O)Cc2ccc(CNC(=O)NCCCC[C@H](NC(=O)N[C@@H](CCC(=O)O)C(=O)O)C(=O)O)cc2)C(=O)O)cs1)C(C)C [EC1677]
[1]
  tumor growth in vivo compared to untreated animals: efficacious in decreasing tumor growth
[1]; 2 weeks
  cures (cured/tested animals; no tumor growth during entire observation period): 4/7
other
  IC50: 20.9 nM
[2]; 2 μmol/kg, TIW, 2 weeks
  gross animal toxicity (weight loss, major organ tissue degeneration): do not exhibit gross animal toxicity

## CCCC(=O)OCN(C(=O)[C@@H](NC(=O)[C@H]1CCCCN1C)C(C)CC)[C@H](C[C@@H](OC(C)=O)c1nc(C(=O)N[C@@H](Cc2ccc(O)cc2)C[C@H](C)C(=O)NNC(=O)OCCSSC[C@H](NC(=O)[C@H](CC(=O)O)NC(=O)[C@H](CCCNC(=N)N)NC(=O)Cc2ccc(CNC(=O)NCCCC[C@H](NC(=O)N[C@@H](CCC(=O)O)C(=O)O)C(=O)O)cc2)C(=O)O)cs1)C(C)C (stereo partly shown) [EC1310]
PSMA
  Relative PSMA Binding Affinity (fold over PMPA = 1.0): 10 fold

## CCCOCN(C(=O)[C@@H](NC(=O)[C@H]1CCCCN1C)[C@@H](C)CC)[C@H](C[C@@H](OC(C)=O)c1nc(C(=O)N[C@@H](Cc2ccc(O)cc2)C[C@H](C)C(=O)NNC(=O)OCCSSC[C@H](NC(=O)[C@H](CC(=O)O)NC(=O)[C@H](CC(=O)O)NC(=O)Cc2ccc(CNC(=O)NCCCC[C@H](NC(=O)N[C@@H](CCC(=O)O)C(=O)O)C(=O)O)cc2)C(=O)O)cs1)C(C)C [EC1718]
[1]
  tumor growth in vivo compared to untreated animals: efficacious in decreasing tumor growth
[1]; 2 weeks
  cures (cured/tested animals; no tumor growth during entire observation period): 1/7
other
  IC50: 17.9 nM
[2]; 2 μmol/kg, TIW, 2 weeks
  gross animal toxicity (weight loss, major organ tissue degeneration): do not exhibit gross animal toxicity

## CCCC(=O)OCN(C(=O)[C@@H](NC(=O)[C@H]1CCCCN1C)C(C)CC)[C@H](C[C@@H](OC(C)=O)c1nc(C(=O)N[C@@H](Cc2ccc(O)cc2)C[C@H](C)C(=O)NNC(=O)OCCSSC[C@H](NC(=O)[C@@H](CC(=O)O)NC(=O)[C@@H](CC(=O)O)NC(=O)Cc2ccc(CNC(=O)NCCCC[C@H](NC(=O)N[C@@H](CCC(=O)O)C(=O)O)C(=O)O)cc2)C(=O)O)cs1)C(C)C (stereo partly shown) [EC1308]
PSMA
  Relative PSMA Binding Affinity (fold over PMPA = 1.0): 20 fold

## CCCC(=O)OCN(C(=O)[C@@H](NC(=O)[C@H]1CCCCN1C)C(C)CC)[C@H](C[C@@H](OC(C)=O)c1nc(C(=O)N[C@@H](Cc2ccc(O)cc2)C[C@H](C)C(=O)NNC(=O)OCCSSC[C@H](NC(=O)[C@H](Cc2ccccc2)NC(=O)[C@H](CC(=O)O)NC(=O)NCCCC[C@H](NC(C)=O)C(=O)O)C(=O)O)cs1)C(C)C (stereo partly shown) [EC1568, reference compound]
PSMA
  Relative PSMA Binding Affinity (fold over PMPA = 1.0): 0 fold

## CC(=O)O[C@@]12CO[C@@H]1C[C@H](O)[C@@]1(C)C(=O)[C@H](O)C3=C(C)[C@@H](OC(=O)[C@H](O)[C@@H](NC(=O)OC(C)(C)C)c4ccccc4)C[C@@](O)([C@@H](OC(=O)c4ccccc4)[C@H]21)C3(C)C [docetaxel, reference compound]
[1]; [5]
  anti-tumor activity: only modest anti-tumor activity
  cures (cured/tested animals): 1/4
[2]; 10 mg/kg, BIW, 2 weeks, MTD
  gross toxicity: high gross toxicity
  weight loss: 18%

## O=C(O)CC[C@H](CP(=O)(O)O)C(=O)O [PMPA, reference compound]
PSMA
  relative affinity for PSMA: 1.0 ×

## O=C(O)CC[C@H](NC(=O)N[C@@H](CCCCNC(=O)NCc1ccc(CC(=O)N[C@@H](CC(=O)O)C(=O)N[C@@H](CC(=O)O)C(=O)N[C@@H](CS)C(=O)O)cc1)C(=O)O)C(=O)O [EC1167]
PSMA
  Relative PSMA Binding Affinity (fold over PMPA = 1.0): 11 fold

## O=C(O)CC[C@H](NC(=O)N[C@@H](CCCCNC(=O)NCc1ccc(CC(=O)N[C@@H](CC(=O)O)C(=O)N[C@@H](CC(=O)O)C(=O)NCC(=O)O)cc1)C(=O)O)C(=O)O [EC1168]
PSMA
  Relative PSMA Binding Affinity (fold over PMPA = 1.0): 17 fold
PSMA; [4]
  relative affinity for PSMA: 17 ×

## CCCCCCOCN(C(=O)[C@@H](NC(=O)[C@H]1CCCCN1C)C(C)CC)[C@H](C[C@@H](OC(C)=O)c1nc(C(=O)N[C@@H](Cc2ccc(O)cc2)C[C@H](C)C(=O)NNC(=O)OCCSSC[C@H](NC(=O)[C@H](CC(=O)O)NC(=O)[C@H](CC(=O)O)NC(=O)Cc2ccc(CNC(=O)NCCCC[C@H](NC(=O)N[C@@H](CCC(=O)O)C(=O)O)C(=O)O)cc2)C(=O)O)cs1)C(C)C (stereo partly shown) [EC1720]
LNCaP cells
  IC50: 54.2 nM
[2]; 2 μmol/kg, TIW, 2 weeks
  gross animal toxicity (weight loss, major organ tissue degeneration): do not exhibit gross animal toxicity

## CCCCCCCOCN(C(=O)[C@@H](NC(=O)[C@H]1CCCCN1C)C(C)CC)[C@H](C[C@@H](OC(C)=O)c1nc(C(=O)N[C@@H](Cc2ccc(O)cc2)C[C@H](C)C(=O)NNC(=O)OCCSSC[C@H](NC(=O)[C@H](CC(=O)O)NC(=O)[C@H](CC(=O)O)NC(=O)Cc2ccc(CNC(=O)NCCCC[C@H](NC(=O)N[C@@H](CCC(=O)O)C(=O)O)C(=O)O)cc2)C(=O)O)cs1)C(C)C (stereo partly shown) [EC1721]
LNCaP cells
  IC50: 65.6 nM
[2]; 2 μmol/kg, TIW, 2 weeks
  gross animal toxicity (weight loss, major organ tissue degeneration): do not exhibit gross animal toxicity

## CCCC(=O)OCN(C(=O)[C@@H](NC(=O)[C@H]1CCCCN1C)C(C)CC)[C@H](C[C@@H](OC(C)=O)c1nc(C(=O)N[C@@H](Cc2ccc(O)cc2)C[C@H](C)C(=O)NNC(=O)OCCSSC[C@H](NC(=O)[C@H](CC(=O)O)NC(=O)[C@H](CC(=O)O)NC(=O)Cc2ccc(CNC(=O)NCCCC[C@H](NC(=O)N[C@@H](CCC(=O)O)C(=O)O)C(=O)O)cc2)C(=O)O)cs1)C(C)C (stereo partly shown) [EC1169]
LNCaP cells
  IC50: 13 nM
[2]; 2 μmol/kg, TIW, 2 weeks
  gross animal toxicity (weight loss, major organ tissue degeneration): absence of weight loss or major organ tissue degeneration
[2]; 2 μmol/kg, TIW, 2 weeks vs docetaxel 10 mg/kg, BIW, MTD
  gross toxicity compared to docetaxel: substantially less gross animal toxicity compared to docetaxel; also recorded: less toxic than docetaxel
[2]; 2 μmol/kg, TIW, 2 weeks, listed as EC169
  gross animal toxicity (weight loss, major organ tissue degeneration): do not exhibit gross animal toxicity
[3]
  hematological toxicity in red blood cells and white blood cells: significantly lower than untreated controls

## O=C(O)CC[C@H](NC(=O)N[C@@H](CCC(=O)O)C(=O)O)C(=O)O [DUPA, reference compound]
PSMA
  relative affinity for PSMA: 0.05 ×
